From ChEMBL document CHEMBL5352386 (Eur J Med Chem, 2022)

Columns and labels:
[1] = Cytotoxicity against mouse BV-2 cells assessed as survival rate at 2.5 uM measured after 24 hrs by MTT assay relative to control; type: toxicity, cell-based; conditions: read-out: Survival
L02 [2] = assay: Cytotoxicity against human L02 cells assessed as survival rate at 2.5 uM measured after 24 hrs by MTT assay relative to control; type: functional; conditions: read-out: Survival
Cholinesterase [3] = molecular target: Cholinesterase (Homo sapiens, UniProt P06276); assay: Inhibition of human BuChE using butyrylthiocholine iodide as substrate incubated for 10 mins followed by substrate addition by DTNB-reagent based Ellman's colorimetric assay
Sequence of Cholinesterase (Homo sapiens, UniProt P06276) (P06276 whole entry): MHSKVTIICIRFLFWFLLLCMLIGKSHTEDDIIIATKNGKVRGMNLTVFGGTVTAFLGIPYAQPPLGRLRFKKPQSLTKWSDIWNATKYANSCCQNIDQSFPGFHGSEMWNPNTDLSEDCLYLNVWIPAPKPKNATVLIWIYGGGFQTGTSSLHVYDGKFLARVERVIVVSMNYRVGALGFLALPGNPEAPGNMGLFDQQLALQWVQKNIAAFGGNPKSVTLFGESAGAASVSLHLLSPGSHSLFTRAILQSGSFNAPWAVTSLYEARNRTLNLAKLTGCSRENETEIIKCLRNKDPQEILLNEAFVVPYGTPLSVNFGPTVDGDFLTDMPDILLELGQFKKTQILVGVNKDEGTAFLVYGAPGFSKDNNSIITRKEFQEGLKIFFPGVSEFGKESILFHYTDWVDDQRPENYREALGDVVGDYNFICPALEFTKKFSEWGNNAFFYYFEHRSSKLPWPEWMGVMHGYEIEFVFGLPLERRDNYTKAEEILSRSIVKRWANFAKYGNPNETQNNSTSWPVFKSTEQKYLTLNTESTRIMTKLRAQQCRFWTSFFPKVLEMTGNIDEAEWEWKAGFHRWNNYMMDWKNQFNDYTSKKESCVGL

PC-12 = assay: Cytotoxicity against rat PC12 cells assessed as survival rate at 100 uM measured after 24 hrs by MTT assay relative to control; conditions: PC-12, 24 h, read-out: Survival
Cholinesterase [4] = molecular target: Cholinesterase (Equus caballus, UniProt P81908); assay: Inhibition of equine serum BuChE using butyrylthiocholine iodide as substrate incubated for 10 mins followed by substrate addition by DTNB-reagent based Ellman's colorimetric assay
Sequence of Cholinesterase (Equus caballus, UniProt P81908) (P81908 whole entry): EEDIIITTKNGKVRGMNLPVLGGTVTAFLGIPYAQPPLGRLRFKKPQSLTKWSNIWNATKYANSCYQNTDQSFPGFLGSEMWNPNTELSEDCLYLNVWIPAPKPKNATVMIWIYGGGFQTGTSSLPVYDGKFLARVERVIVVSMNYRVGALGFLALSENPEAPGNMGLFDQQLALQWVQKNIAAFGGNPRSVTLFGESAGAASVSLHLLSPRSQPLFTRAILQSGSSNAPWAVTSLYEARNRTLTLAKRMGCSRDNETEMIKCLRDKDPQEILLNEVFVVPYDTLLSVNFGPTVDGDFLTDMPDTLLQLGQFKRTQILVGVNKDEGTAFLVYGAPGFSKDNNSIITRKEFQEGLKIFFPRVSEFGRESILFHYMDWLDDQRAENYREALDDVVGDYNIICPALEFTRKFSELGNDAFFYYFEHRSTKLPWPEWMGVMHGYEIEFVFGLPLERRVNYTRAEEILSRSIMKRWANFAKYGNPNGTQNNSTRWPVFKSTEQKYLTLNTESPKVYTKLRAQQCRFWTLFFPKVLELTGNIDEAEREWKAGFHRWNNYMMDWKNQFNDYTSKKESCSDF

SH-SY5Y [5] = assay: Cytotoxicity against human SH-SY5Y cells assessed as survival rate at 2.5 uM measured after 24 hrs by MTT assay relative to control; type: functional; conditions: read-out: Survival
[6] = Half life in Sprague-Dawley rat at 10 mg/kg, iv measured upto 1440 mins by LC/MS/MS analysis; type: ADME, organism-based; conditions: in vivo
[7] = MRT infinity in Sprague-Dawley rat at 10 mg/kg, iv measured upto 1440 mins by LC/MS/MS analysis; type: ADME, organism-based; conditions: in vivo
[8] = MRT infinity in Sprague-Dawley rat at 10 mg/kg, po measured upto 1440 mins by LC/MS/MS analysis; type: ADME, organism-based; conditions: in vivo
[9] = Cmax in Sprague-Dawley rat at 10 mg/kg, iv measured upto 1440 mins by LC/MS/MS analysis; type: ADME, organism-based; design: dose 10 mg/kg, time < 1440 min, route iv; conditions: in vivo, 24 h
[10] = Oral bioavailability in Sprague-Dawley rat at 10 mg/kg measured upto 1440 mins by LC/MS/MS analysis; type: ADME, organism-based; conditions: in vivo
[11] = Tmax in Sprague-Dawley rat at 10 mg/kg, iv measured upto 1440 mins by LC/MS/MS analysis; type: ADME, organism-based; conditions: in vivo
[12] = Tmax in Sprague-Dawley rat at 10 mg/kg, po measured upto 1440 mins by LC/MS/MS analysis; type: ADME, organism-based; conditions: in vivo
[13] = AUC (0 to infinity) in Sprague-Dawley rat at 10 mg/kg, iv measured upto 1440 mins by LC/MS/MS analysis; type: ADME, organism-based; design: dose 10 mg/kg, time < 1440 min, route iv; conditions: in vivo, 24 h
L02 [14] = assay: Cytotoxicity against human L02 cells assessed as survival rate at 100 uM measured after 24 hrs by MTT assay relative to control; type: functional; conditions: read-out: Survival
SH-SY5Y [15] = assay: Cytotoxicity against human SH-SY5Y cells assessed as survival rate at 100 uM measured after 24 hrs by MTT assay relative to control; type: functional; conditions: read-out: Survival
[16] = Cmax in Sprague-Dawley rat at 10 mg/kg, po measured upto 1440 mins by LC/MS/MS analysis; type: ADME, organism-based; design: time < 1440 min, dose 10 mg/kg, route po; conditions: in vivo, 24 h
[17] = Half life in Sprague-Dawley rat at 10 mg/kg, po measured upto 1440 mins by LC/MS/MS analysis; type: ADME, organism-based; conditions: in vivo
[18] = AUC (0 to infinity) in Sprague-Dawley rat at 10 mg/kg, po measured upto 1440 mins by LC/MS/MS analysis; type: ADME, organism-based; design: dose 10 mg/kg, time < 1440 min, route po; conditions: in vivo
[19] = AUC (0 to t) in Sprague-Dawley rat at 10 mg/kg, po measured upto 1440 mins by LC/MS/MS analysis; type: ADME, organism-based; design: time < 1440 min, dose 10 mg/kg, route po; conditions: in vivo
[20] = Cytotoxicity against mouse BV-2 cells assessed as survival rate at 100 uM measured after 24 hrs by MTT assay relative to control; type: toxicity, cell-based; conditions: read-out: Survival
[21] = AUC (0 to t) in Sprague-Dawley rat at 10 mg/kg, iv measured upto 1440 mins by LC/MS/MS analysis; type: ADME, organism-based; design: time < 1440 min, dose 10 mg/kg, route iv; conditions: in vivo, 24 h

With Nc1nonc1-c1nc2ccccc2n1CC(=O)Nc1cc(F)cc(C(F)(F)F)c1 the viability at 24 h, 2.5 µM [1] was 39.5%, the viability at 2.5 µM (L02 [2]) was 39.5% and the IC50 (Cholinesterase [3]) was 155 nM. For the same compound, the viability at 100 µM (PC-12) was 74.4%, the IC50 (Cholinesterase [4]) was 255 nM and the viability at 2.5 µM (SH-SY5Y [5]) was 23.4%.
For Nc1nonc1-c1nc2ccccc2n1CC(=O)Nc1cnc2ccccc2c1, the half-life [6] was 2.68 h, the MRT inf [7] was 3.11 h and the MRT inf [8] was 7.37 h. The Cmax [9] was 9752.7 ng/mL, the bioavailability [10] was 23.6% and the IC50 (Cholinesterase [3]) was 50.1 nM. It also gave a Tmax [11] of 1 min, a Tmax [12] of 0.18 h and an AUC [13] of 15988.79 ng·h/mL. The viability at 100 µM (L02 [14]) was 70.6%, the viability at 100 µM (SH-SY5Y [15]) was 62.2% and the Cmax [16] was 975.05 ng/mL. The half-life [17] was 4.74 h, the AUC(0-inf) [18] was 3780 ng·h/mL and the AUC(0-t) at 24 h [19] was 3360 ng·h/mL. For the same compound, the viability at 24 h, 100 µM [20] was 62.7% and the AUCt [21] was 15662.39 ng·h/mL.
